Data as given in US20190322697A1, “2'2'-CYCLIC DINUCLEOTIDES” (Institute of Organic Chemistry and Biochemistry, ASCR, V.V.I, priority 2018, published 2019).
pEC50: −log10 of the molar value.

Tests used:
AQ STING (G230A-R293Q) = target: T1, AQ STING (G230A-R293Q) (Homo sapiens, UniProt Q86WV6, G230A/H232R/R293Q); experiment: Differential Scanning Fluorimetry with AQ STING; assay type: binding; conditions: thermal shift, truncated human AQ STING 0.1 mg/ml, 150 μM CDN
T1 construct: truncated human WT STING or AQ STING (amino acid residues 140-343); 8xHis (N, cleaved yes); SUMO (N, cleaved yes); made in house; host or cells: E. coli Rosetta-gami B (DE3)
T1 sequence (Q86WV6 140-343 G230A/H232R/R293Q): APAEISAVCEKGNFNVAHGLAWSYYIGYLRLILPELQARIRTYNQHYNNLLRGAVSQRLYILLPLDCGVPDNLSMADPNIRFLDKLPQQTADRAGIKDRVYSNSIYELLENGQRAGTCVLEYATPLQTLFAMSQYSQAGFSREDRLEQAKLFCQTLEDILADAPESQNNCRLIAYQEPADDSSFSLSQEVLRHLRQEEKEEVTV
Protocol: (§1) Purified PCR products were cleaved with restriction enzymes BamHI (cat. # R0136S, NEB, Ipswich, USA) and NotI (cat. # R0189S, NEB, Ipswich, USA) and cloned into the pSUMO vector linearized with the identical enzymes.
(§2) DNase I (cat. # D5025, Sigma Aldrich, Czech Republic) and RNase A (cat. # R6513, Sigma Aldrich, Czech Republic) were added (final concentration 50 μg/ml) together with MgCl2 (final concentration 5 mmol·l^−1) to the homogenate and bacteria were lysed using French Press G-M™ High-Pressure Cell Press Homogenizer (1500 psi, 3 cycles). […] The resin was poured into a chromatography column, washed with 50 ml buffer A (50 mmol·l^−1 TrisCl (pH 8.0), 800 mmol·l^−1 NaCl, 3 mmol·l^−1 3-mercaptoethanol; 10% glycerol; 20 mmol·l^−1 imidazole) and 8-His-SUMO tagged STING proteins were eluted with 15 ml buffer A containing 300 mmol·l^−1 imidazole. […] Proteins were concentrated with Amicon® Ultra-15 10 K device (cat. # UFC901008, Merck Millipore, Billerica, USA) and flash frozen in liquid N2.
(§3) 20 μL solutions of the reaction mixtures were pipetted in triplicates into 96 well optical reaction plates and thermal denaturation of samples were performed on real time PCR cycler (LightCycler® 480 Instrument II—Roche, Basel, Switzerland). The first derivative of the thermal denaturation curves was performed to calculate denaturing temperatures of STING-CDN complexes and STING apoproteins. The thermal shift for each CDN was calculated by subtracting the average denaturing temperature of STING apoprotein from the average denaturing temperature of STING CDN complex.

WT STING [1] = target: T2, WT STING (Homo sapiens, UniProt Q86WV6, H232R); experiment: Differential Scanning Fluorimetry with WT STING; assay type: binding; parameters: truncated human WT STING or AQ STING (amino acid residues 140-343); 8xHis (N, cleaved yes); SUMO (N, cleaved yes); made in house; host or cells: E. coli Rosetta-gami B (DE3); conditions: thermal shift, truncated human WT STING 0.1 mg/ml, 150 μM CDN
Protocol: as §1, §2, §3
Target sequence in this assay (Q86WV6 140-343 H232R): as the sequence (Q86WV6 140-343 G230A/H232R/R293Q) above, with A91G, Q154R counted along it

WT STING [2] = target: T2, WT STING; experiment: Digitonin assay using 293T wtSTING-FL reporter cells; assay type: cell-based; conditions: 293T wtSTING-FL cells, ISRE firefly luciferase reporter, digitonin buffer 30 min, then 5 hours
Source text: Two complementary oligonucleotides of the sequence […] […] […] […] […] […] […] The oligonucleotides were mixed in equal molar amounts, hybridized, and cleaved by restriction endonucleases HindIII (cat. #. R0104S, NEB, Ipswich, USA) and BglII (cat. # R0144S, NEB, Ipswich, USA). Ultimately, they were ligated into plasmid pGL4.27 (cat. # E6651, Promega, Madison, USA) linearized with the same enzymes. As result the sequence with four ISRE sites was placed upstream of the minimum promoter of firefly luciferase reporter gene.
After 5 minutes incubation at room temperature (RT), 250 μL of the mixture was added dropwise to the cells in one well. Cells were incubated 36 hours at 37° C. with 5% CO2, and then detached with 0.05% Trypsin and 0.22 g/L EDTA (both cat. # L0941, Biowest, Riverside, USA).
Transfected cells were seeded onto poly-D-lysine coated six well plates at density 50,000 cells per 1 cm^2 in DMEM medium with high glucose containing 10% heat inactivated FBS, 30 μg/mL blasticidin (cat. # ant-bl-05, InvivoGen, San Diego, USA), 0.06 mg/ml Penicillin G and 0.1 mg/ml Streptomycin Sulfate (both cat. #. L0018, Biowest, Riverside, USA). The medium was replenished every 3-4 days until visible colonies of cells resistant to blasticidin were formed.
Blasticidin resistant cells stably expressing WT STING were further transfected with pGL64.27-4×ISRE plasmid following the same procedure as described above. […] Homogeneous culture of stably double transfected cells was prepared by limiting dilution of cells in 96 well plates and wells with cells were selected that originated from a single cell.
The medium was removed next day and three fold serial dilutions of compounds in Digitonin buffer containing 50 mmol·l^−1 HEPES (cat. # H3375, Sigma Aldrich, Czech Republic) pH 7.0, 100 mmol·l^−1 KCl, 3 mmol·l^−1 MgCl2, 0.1 mmol·l^−1 DTT (cat. #D0632, Sigma Aldrich, Czech Republic), 85 mmol·l^−1 Sucrose (cat. # S7903, Sigma Aldrich, Czech Republic), 0.2% BSA (cat. # A2153, Sigma Aldrich, Czech Republic), 1 mmol·l^−1 ATP (cat. # A1852, Sigma Aldrich, Czech Republic), 0.1 mmol·l^−1 GTP (cat. # G8877, Sigma Aldrich, Czech Republic), and 10 μg/mL Digitonin A (cat. # D141, Sigma Aldrich, Czech Republic) were added to the cells. The buffer was removed after 30 minutes incubation at 37° C. with 5% CO2, the cells were washed once with 100 μl of cultivation medium, and 100 μl of medium was added to each well. The plates with cells were incubated for 5 hours at 37° C. with 5% CO2, 50 μl of the medium was removed and 30 μl of ONE-Glo™ Luciferase Assay System reagent (cat. # E6120, Promega, Madison, USA) was added to each well. Luminesce was read on Synergy H1 (Biotek, Winooski, USA).
Target sequence in this assay (Q86WV6 whole entry H232R, the tested form may be a part): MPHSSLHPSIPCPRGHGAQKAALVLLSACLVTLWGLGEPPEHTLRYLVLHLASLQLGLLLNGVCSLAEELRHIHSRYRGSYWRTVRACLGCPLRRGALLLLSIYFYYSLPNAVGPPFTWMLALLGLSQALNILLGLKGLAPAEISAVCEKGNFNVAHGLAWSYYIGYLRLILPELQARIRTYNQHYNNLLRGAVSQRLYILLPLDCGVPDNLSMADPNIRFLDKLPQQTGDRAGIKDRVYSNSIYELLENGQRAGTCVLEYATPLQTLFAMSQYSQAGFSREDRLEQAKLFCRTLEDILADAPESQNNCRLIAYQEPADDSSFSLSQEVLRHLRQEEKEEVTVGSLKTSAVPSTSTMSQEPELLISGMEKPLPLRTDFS

DSF ΔTm AQ STING (AQ STING (G230A-R293Q)) [°C] | DSF ΔTm WT STING (WT STING [1]) [°C] | pEC50 (WT STING [2]) | Compound
19.4 | 11.5 | 7.52 | Nc1nc2c(ncn2[C@@H]2O[C@@H]3COP(=O)(O)O[C@@H]4[C@H](O)[C@@H](COP(=O)(O)O[C@@H]2[C@@H]3O)O[C@H]4n2cnc3c(N)ncnc32)c(=O)[nH]1 [2′2′-cGAMP, reference compound]
16.5 | 9.0 | 6.82 | Nc1nc2c(ncn2[C@@H]2O[C@@H]3COP(=O)(O)O[C@@H]4[C@H](O)[C@@H](COP(=O)(O)CO[C@@H]2[C@@H]3O)O[C@H]4n2cnc3c(N)ncnc32)c(=O)[nH]1 [Example 2, 2-amino-9-((1R,6R,8R,9R,15R,17R,18R,19R)-17-(6-amino-9H-purin-9-yl)-3,12,18,19-tetrahydroxy-3,12-dioxido-2,4,7,10,13,16-hexaoxa-3,12-diphosphatricyclo[13.2.1.1^6,9]nonadecan-8-yl)-1,9-dihydro-6H-purin-6-one]
19.0 | 12.0 | 7.30 | Nc1nc2c(ncn2[C@@H]2O[C@@H]3COP(=O)(O)COC4C(O)[C@@H](COP(=O)(O)OC2C3O)O[C@H]4n2cnc3c(N)ncnc32)c(=O)[nH]1 (stereo partly drawn) [Example 3, 2-amino-9-((1R,6R,8R,9R,15R,17R,18R,19R)-8-(6-amino-9H-purin-9-yl)-3,12,18,19-tetrahydroxy-3,12-dioxido-2,4,7,10,13,16-hexaoxa-3,12-diphosphatricyclo[13.2.1.1^6]9nonadecan-17-yl)-1,9-dihydro-6H-purin-6-one]
0.3 | 0.3 | < 4.30 | Nc1nc2c(ncn2[C@@H]2O[C@@H]3COP(=O)(O)CO[C@@H]4[C@H](O)[C@@H](COP(=O)(O)CO[C@@H]2[C@@H]3O)O[C@H]4n2cnc3c(=O)[nH]c(N)nc32)c(=O)[nH]1 [Example 4, 9,9′-((1R,7R,9R,10R,16R,18R,19R,20R)-4,13,19,20-tetrahydroxy-4,13-dioxido-2,5,8,1 1,14,17-hexaoxa-4,13-diphosphatricyclo[14.2.1.1^7,10]icosane-9,18-diyl)bis(2-amino-1,9-dihydro-6H-purin-6-one)]
0.2 | −0.9 | < 4.30 | Nc1ncnc2c1ncn2[C@@H]1O[C@@H]2COP(=O)(O)CO[C@H]3[C@H](O)[C@@H](COP(=O)(O)O[C@@H]1[C@@H]2O)O[C@H]3n1cnc2c(N)ncnc21 [Example 5, (1R,6R,8R,9S,15R,17R,18R,19R)-8,17-bis(6-amino-9H-purin-9-yl)-3,12,18,19-tetrahydroxy-2,4,7,10,13,16-hexaoxa-3,12-diphosphatricyclo[13.2.1.1^6,9]nonadecane 3,12-dioxide]
22.9 | 15.2 | 7.52 | Nc1nc2c(ncn2[C@@H]2O[C@@H]3COP(=O)(O)CO[C@@H]4[C@H](F)[C@@H](COP(=O)(O)O[C@@H]2[C@@H]3F)O[C@H]4n2cnc3c(N)ncnc32)c(=O)[nH]1 [Example 9, 2-amino-9-((1S,6R,8R,9S,15R,17R,18R,19R)-8-(6-amino-9H-purin-9-yl)-18,19-difluoro-3,12-dihydroxy-3,12-dioxido-2,4,7,10,13,16-hexaoxa-3,12-diphosphatricyclo[13.2.1.1^6,9]nonadecan-17-yl)-1,9-dihydro-6H-purin-6-one]

The next lines start with the compound.

Compound | DSF ΔTm AQ STING (AQ STING (G230A-R293Q)) [°C] | DSF ΔTm WT STING (WT STING [1]) [°C] | pEC50 (WT STING [2])
Nc1ncnc2c1ncn2[C@@H]1O[C@@H]2COP(=O)(O)O[C@H]3[C@@H](O)[C@H](n4cnc5c(N)ncnc54)O[C@@H]3COP(=O)(O)O[C@H]2[C@H]1O [3′3′-c-di-AMP, reference compound] | 9.3 | 2.6 | 6.52
Nc1nc2c(ncn2[C@@H]2O[C@@H]3COP(=O)(O)O[C@H]4[C@@H](O)[C@H](n5cnc6c(=O)[nH]c(N)nc65)O[C@@H]4COP(=O)(O)O[C@H]3[C@H]2O)c(=O)[nH]1 [3′3′-c-di-GMP, reference compound] | 7.7 | 2.6 | 5.24
Nc1ncnc2c1ncn2[C@@H]1O[C@@H]2COP(=O)(O)CO[C@H]3[C@H](O)[C@@H](COP(=O)(O)CO[C@H]1[C@@H]2O)O[C@H]3n1cnc2c(N)ncnc21 [Example 6, (1S,7R,9R,10S,16R,18R,19R,20R)-9,18-bis(6-amino-9H-purin-9-yl)-4,13,19,20-tetrahydroxy-2,5,8,11,14,17-hexaoxa-4,13-diphosphatricyclo[14.2.1.1^7,10]icosane 4,13-dioxide] | −0.3 | 0.0 | < 4.30
Nc1ncnc2c1ncn2[C@@H]1O[C@@H]2COP(=O)(O)CO[C@@H]3[C@@H](O)[C@@H](COP(=O)(O)CO[C@@H]1[C@H]2O)O[C@H]3n1cnc2c(N)ncnc21 [Example 7, (1R,7R,9R,10R,16R,18R,19S,20S)-9,18-bis(6-amino-9H-purin-9-yl)-4,13,19,20-tetrahydroxy-2,5,8,11,14,17-hexaoxa-4,13-diphosphatricyclo[14.2.1.1^7,10]icosane 4,13-dioxide] | 0.0 | 0.0 | < 4.30
Nc1ncnc2c1ncn2[C@@H]1O[C@@H]2COP(=O)(O)O[C@@H]3[C@H](F)[C@@H](COP(=O)(O)CO[C@@H]1[C@@H]2F)O[C@H]3n1cnc2c(N)ncnc21 [Example 8, (1S,6R,8R,9S,15R,17R,18R,19R)-8,17-bis(6-amino-9H-purin-9-yl)-18,19-difluoro-3,12-dihydroxy-2,4,7,10,13,16-hexaoxa-3,12-diphosphatricyclo[13.2.1.1^6,9]nonadecane 3,12-dioxide] | 11.5 | 3.6 | 5.96
